Where a SMILES comes first, the peptide text is derived from it. The star is where a group is joined. Cbz = O=C(OCc1ccccc1)*
Tests used:
D5 T cells = test: Ionomycin-induced anergy in D5 Th1 cells, immunoblot of signaling proteins and E3 ligases; assay type: cell-based, murine
Protocol: (§1) The murine D5 (Ar-5) Th1 cell clone was grown as previously described (F. Macian et al., Cell 109, 719-31 (2002). CD4+ cells were isolated from spleen and lymph nodes of DO11.10 or 2B4 TCR-transgenic mice using positive selection with anti-CD4 magnetic beads (Dynal), and differentiated into Th1 cells for 2 weeks using standard protocols (id.). Anergy was induced by treating primary Th1 cells or the D5 Th1 clone (10^6 cells/ml) with 1 μM ionomycin for 16 hours, Cyclosporin A was included in some experiments at a concentration of 2 μM. The cells were then washed to remove the ionomycin and incubated at higher cell density (˜3×10^6 cells/ml) for 1-2 hours at 37 C. In the experiment of FIG. 14, a high-density incubation step was included. The extent of anergy induction was evaluated by intracellular cytokine staining or in standard proliferation assays (id.). Restimulation of D5 cells was done with 1 μg/ml anti-CD3 with or without 2.5 μg/ml anti-CD28 or with 20 nM PMA or 1 μM Ionomycin or both. HEK 293 cells were grown and transfected with Ca2+ phosphate using standard protocols.
D5 cells were extracted at 10^6 cells/10 μl in RIPA buffer (20 mM Tris pH 7.5, 250 mM NaCl, 1 mM DTT, 10 mM MgCl2, 1% Nonidet P-40, 0.1% SDS, 0.5% sodium deoxycholate) supplemented with protease and phosphatase inhibitors (1 mM PMSF, 25 μg/ml aprotinin, 25 μg/ml leupeptin, 10 mM NaF, 8 mM β glycerophosphate, 0,1 mM sodium ortho vanadate). For assessing protein levels in cell extracts, 5-30 μl of RIPA extracts were separated on 9-12% SDS-polyacrylamide gels, and proteins were electrotransferred onto nitrocellulose membranes. For immunoprecipitations, 500-1000 μl of RIPA cell extracts were used. For coimmunoprecipitations from lysates of transfected HEK 293 cells, cells from one 10 cm dish were lysed in 50 mM Hepes pH 7.5, 100 mM NaCl, 1 mM EDTA, 0,5% NP-40 and 10% glycerol including phosphatase and protease inhibitors. Lysates were precleared with either protein A- or protein G-Sepharose, immunoprecipitations were performed for 4 hrs and the resulting precipitates were washed 3-4 times with the buffer used for cell extraction. Immunoblots were performed with antibody solutions in 5% milk and TBS (10 mM TrisCl (pH 8.0), 150 mM NaCl) and washes were done in TBS containing 0.05% Tween-20.

AND T cell blasts = test: Stability of mature immunological synapses on lipid bilayers after phospholipase inhibitors; assay type: cell-based
Protocol: (§2) Planar bilayers were prepared essentially as described in (Grakoui et al., Science 285, 221-7 (1999)), except that the MCC88-103 peptide was loaded on the GPI-IEk for 24 hours. Bilayers were prepared using Oregon green labeled GPI-IEk and Cy5 labeled GPI-ICAM-1 in parallel plate flow cells (Bioptechs). Control and ionomycin treated cells were injected into the flow cell at a density of 10^6 cells/ml. Areas of bilayers where cells were forming synapses were imaged using FITC and Cy5 optics on an Olympus IX-70 inverted microscope equipped with a amamtsu ORCA-ER digital camera and a Xenon-arc lamp as a light source for fluorescence microscopy. […] Bright field, interference reflection (IRM) and fluorescence images were collected and processed using the Metamorph software. The background from the fluorescence images was subtracted using the produce background correction image function which is based on median filtering to subtract background that is nonuniform. Percentage of cells adhering were analyzed by comparing bright field and IRM images.
Experiments using phospholipase inhibitors were performed using AND T cell blasts (day 8). […] After 60 minutes, fields containing stable immunological synapses with central MHC clusters (green) and complete ICAM-1 rings (red) were imaged and the locations recorded using an automated stage and IPLab software. […]

D5 cells = test: Real-time RT-PCR of E3 ligase and PLC-γ1 mRNA levels in D5 cells; assay type: cell-based, murine; conditions: ionomycin-treated T cells
Protocol: Total RNA was prepared from untreated or ionomycin-pretreated D5 cells using Ultraspec reagent (Biotecx). cDNAs were synthesized from 2 μg of total RNA as template, using a cDNA synthesis kit (Invitrogen). Quantitative real time-PCR was performed in an I-Cycler (BioRad) using a SYBR Green PCR kit (Applied Biosystems). The sequences of the primer pairs are as follows:
Thermal cycling conditions were 95° C. for 5 min, then 40 cycles of 95° C., 65° C., and 72° C. for 30 sec each, terminating with a single cycle at 72° C. for 5 min. Signals were captured during the polymerization step (72° C.). A threshold was set in the linear part of the amplification curve, and the number of cycles needed to reach it was calculated for each gene. Melting curve analysis and agarose gel electrophoresis were performed to test the purity of the amplified bands. Normalization was performed by using L32 levels as an internal control for each sample. The ratio of mRNA levels in ionomycin-treated or ionomycin/CsA treated to untreated samples were determined.

HEK 293 cells = test: PLC-γ1 ubiquitination in transfected HEK 293 cells; assay type: cell-based; conditions: 3 μM ionomycin for 30 min
Protocol: FIG. 17C is a chart and a set of immunoblots illustrating that Itch induces mono-, di- and poly-ubiquitination of PLC-γ1. HEK 293 cells were transfected in duplicate with expression vectors coding for HA-tagged ubiquitin, AU.1-tagged PLC-γ1 and/or myc-tagged Itch as indicated, and one culture of each pair was stimulated with 3 μM ionomycin for 30 min before cell extraction. Cell extracts were immunoprecipitated with AU.1 antibodies and analyzed for ubiquitin-modified or total immunoprecipitated PLC-γ1 (upper two panels), or were directly analyzed for PLC-γ1 and Itch expression by immunoblotting (lower two panels).
as §1, with “The extent of anergy induction was evaluated by intracellular cytokine staining or in standard proliferation assays (id.). Restimulation of D5 cells was done with 1 μg/ml anti-CD3 with or without 2.5 μg/ml anti-CD28 or with 20 nM PMA or 1 μM Ionomycin or both. HEK 293 cells were grown and transfected with Ca2+ phosphate using standard protocols.” left out

[1] = test system: Th1 cells from BALB/c mice; test: Pulse-chase of PKCθ in Th1 cells; assay type: cell-based; conditions: ionomycin 16 h, pulse-chase with plate-bound anti-CD3
Protocol: FIG. 21 is a set of autoradiograms illustrating calcineurin-dependent degradation of PKCθ in anergic T cells. Th1 cells from BALB/c mice were left untreated or pretreated with ionomycin for 16 h, pulse-labeled for 2 h with ^35S cysteine/methionine, washed and stimulated with plate-bound anti-CD3 antibody during the indicated chase periods. PKCθ immunoprecipitates were analyzed by autoradiography.
CD4 cells were isolated via dynal beads selection, cells were starved for 1 hr in cysteine/methionine free media and incubated for 2 hrs with 100 μCi/ml 35S-cysteine and -methionine. Cells were washed, resuspended in complete media and stimulated with 2 μg/ml anti-CD3 on crosslinking antibody coated plates. Cells were extracted in RIPA buffer and immunoprecipitations performed as described above. Immunoprecipitates were resolved on SDS-PAGE, that were treated with Enhance solution (NEN), dried and used for autoradiographs. Densitometric analysis was performed using IQ-Mac vs 1.2 software.

[2] = test system: TH1 cells from 5CC7 TCR-transgenic mice; test: Immune synapse formation by 5CC7 TCR-transgenic TH1 cells on lipid bilayers; assay type: cell-based; conditions: 5CC7 T cells pretreated with ionomycin for 16 h
Protocol: as §2
The formation of immune synapses was evaluated as described for the experiments shown in FIG. 19, with TH1 cells from wild-type or Cblb−/− 5CC7 TCR-transgenic mice and lipid bilayers displaying ICAM-1 and I-Ek pigeon cytochrome C (PCC) molecules. […] Below the image series is a histogram that quantifies the imaging results. […]

CC(C)C[C@@H](C=O)NC(=O)[C@H](CC(C)C)NC(=O)[C@H](CC(C)C)NC(=O)OCc1ccccc1 [MG132] (Cbz-Leu-Leu-Leu-aldehyde)
PLC-γ1 degradation (D5 T cells; ionomycin 16 h, then incubation with 10 μM MG132): did not prevent
accumulation of a modified (mono-ubiquitinated) form of PKCθ (D5 T cells; only in anergized T cells, long exposure): increased the accumulation

COc1ccc2c(c1)CC[C@@H]1[C@@H]2CC[C@]2(C)[C@@H](NCCCCCCN3C(=O)C=CC3=O)CC[C@@H]12 [U73122]
U73122 concentrations at which the effects were observed (AND T cell blasts; 3 independent experiments): 0.1 to 1 µM
effect on established mature synapses (AND T cell blasts; added after mature synapses formed): disintegration of the outer LFA-1 ring

C[C@H](CCC(=O)O)C[C@H](C)C[C@H](C)C(=O)/C=C(\O)[C@H](C)C[C@H](C)C/C=C/[C@@H](C)[C@@H](O)[C@@H](C)[C@@H](O)C[C@@H]1CC[C@@](C)([C@H]2CC[C@@](C)([C@@H](C)O)O2)O1 [ionomycin]
PLC-γ1, PKCθ and RasGAP protein levels (D5 T cells; D5 T cells, ionomycin pretreatment followed by cell-cell contact, immunoblot): pronounced decrease
increase in total protein ubiquitination (D5 T cells; ionomycin pretreatment, D5 T cells): ~2 fold
Cbl-b protein induction (D5 T cells; ionomycin-treated D5 cells): even more highly induced
Itch protein levels, increase (D5 T cells; ionomycin-treated D5 cells): ~3 fold
Nedd4 protein levels (D5 T cells; ionomycin-treated D5 cells): no change
Tsg101 protein levels, increase (D5 T cells; ionomycin-treated D5 cells): ~3 fold
PLC-γ1 mRNA levels (D5 cells): remained constant
PLC-γ1 ubiquitination (HEK 293 cells): induced PLC-γ1 ubiquitination
PKCθ turnover versus mock-treated T cells [1]: significantly more rapidly
synapse stability [2]: synapse disorganization
time to form the mature synapse on contact with the bilayer [2]: < 5 min

Reference: patent US20070274915A1, “Modulation Of Anergy And Methods For isolating Anergy-Modulating Compounds” (priority 2003, published 2007)
